Tests used:
[1] = system: capsaicin provoked nasal tissue response; assay: Contralateral nasal tissue volume (MRI) after ipsilateral capsaicin challenge in guinea pig; assay type: in vivo; details: 1 hour pre-treatment, 0.3 mM capsaicin challenge
Experimental: (§1) Dunkin Hartley guinea pigs (ca. 180-200 g) were intranasally sensitised into both nostrils twice daily for 5 days with 25 μl of 10 μg ovalbimun plus 10 mg aluminium hydroxide in saline. This was followed up with one week of intranasal challenge in both nostrils with ovalbumin 25 μl of a 5 mg/ml saline solution per nostril (weekends eliminated).
(§2) Six animals per group were studied and a repeat of each study conducted to provide up to 12 animals per group in the final data set. Animals were pretreated with Compound 1 (intranasal administration 25 μl per nostril of a suspension or oral administration 1 ml of a solution in 50% deionised water 5% DMSO and 45% PEG 200). At a set time point the animals were anaethetised with urethane (1.5 g/kg) i.p. and scanned with magnetic resonance imaging (MRI) to obtain baseline nasal images. Each animal was then removed from the scanner and received an ipsilateral nasal challenge of capsaicin (50 μl of a solution 0.3 mM 5% DMSO, 5% Tween 80, 90% Phosphate buffered saline)) or 10% hypertonic saline solution (50 μl) (administered by pipette. The animal was rescanned at 10 minutes post-challenge to measure the contralateral fluid volumes.
(§3) The fluid measurement was made using standard T2 weighted spin echo MRI sequences on a 2 Tesla Bruker Medspec MRI scanner. The raw data was collected using Paravision 3.0.2 (Bruker) software. […]

[2] = system: capsaicin provoked nasal secretion; assay: Contralateral nasal fluid secretion (MRI) after ipsilateral capsaicin challenge in sensitised guinea pig; assay type: in vivo; details: for reduction of contralateral fluid secretion: oral, non micronised, 1 hour prior to 0.3 mM capsaicin challenge; for inhibition of capsaicin provoked nasal secretion: topical (intranasal) non-micronised
Experimental: as §1, §2
The fluid measurement was made using standard T2 weighted spin echo MRI sequences on a 2 Tesla Bruker Medspec MRI scanner. The raw data was collected using Paravision 3.0.2 (Bruker) software. Fluid measurements were made using grey level thresholding technique using Mayo Clinic software Analyze 7.0. Statistical analysis was carried out using the Statistica 6.0 software by StatSoft

[3] = system: hypertonic saline provoked nasal secretion; assay: Contralateral nasal fluid secretion (MRI) after ipsilateral hypertonic saline challenge in sensitised guinea pig; assay type: in vivo; details: topical micronised 1 mg/ml, 1 hour pre-treatment, 10% hypertonic saline challenge; p<0.005
Experimental: as §1, §2, §3

[4] = system: Capsaicin Induced Currents recorded from Nasally Innervated Guinea-Pig Trigeminal Ganglia Cell Bodies; assay: Whole cell patch clamp of capsaicin induced currents in nasally innervated trigeminal ganglia neurons; assay type: cell-based
Experimental: Nasal afferent neurons were retrogradely labelled by using DiIC13(3) solution (2% in DMSO, sonicated to ensure solubility) (Dil, Invitrogen), A guinea pig was dosed with atropine (1 mg/kg i.p.) 5 minutes prior to anaesthesia with isoflurane. Once unconscious 25 μl of the Dil solution was placed into the right nostril and the guinea pig allowed to recover. After 24 hours the procedure was repeated and the left nostril dosed. After a period of 2 weeks the guinea pig was killed via CO2 asphyxiation and the trigeminal ganglia rapidly dissected. An area of approximately 3 mm×2 mm which contained neurons that innervated the nose was isolated (J. Allergy Clin. Immunol. 2005, 116, 1282), cut into smaller pieces and incubated in enzyme buffer (8 mg papain in 4 ml L-15) at 37° C. for 40 min. The papain solution was removed and the tissue washed three times with 5-5 media (5-5 Media was prepared by the addition of 5 ml Fetal Bovine Serum, 5 ml Horse Serum, 1 ml 5000 Units Penicillin/5000 […] Streptomycin, 1 ml 30% Glucose and 0.33 ml of 1× stock Insulin Transferrin Sodium Selenite to 90 ml Minimum Essential Media with Earle's salts and Glutamax). The neurons were dissociated by trituration with 3 fire-polished glass Pastuer pipettes of decreasing tip size, then the resulting cell suspension filtered and centrifuged (1000 g for 4 min). The pellet was resuspended in 300 μl of 5-5 media. 25 μl of the cell suspension was plated onto poly-D-lysine and laminin coated 12 mm glass coverslips and placed in an incubator at 37° C. After 2 hours the coverslips were flooded with 5-5 media and used within 48 hours. Conventional whole cell patch clamp techniques were employed under voltage clamp (holding potential of −70 mV) at room temperature. Drug solutions were applied to the cell using a Rapid Solution Changer (Biologic). Cell bodies that had innervated the nose were identified using a fluorescence based microscope. All data was analysed using pClamp version 10.2.0.9 and 10.2.0.10 (Molecular Devices Inc).

Structure (SMILES) | reduction of contralateral tissue swelling compared to vehicle control ([1]; topical micronised 3 mg/ml, p<0.05) | reduction of contralateral tissue swelling compared to vehicle control ([1]; topical micronised 30 mg/ml, p<0.01) | reduction of contralateral fluid secretion ([2]; 10 mg/kg, p<0.05) | reduction of contralateral fluid secretion ([2]; 30 mg/kg, p<0.001) | inhibition of capsaicin provoked nasal secretion ([2]; 10 mg/ml, 1 hour pre-treatment, p<0.005) | inhibition of capsaicin provoked nasal secretion ([2]; 30 mg/ml, 1 hour pre-treatment) | inhibition of the capsaicin response (nasal secretion) ([2]; topical micronised, 1 hour pre-treatment, all the doses evaluated) | inhibition of contralateral response (nasal secretion) ([2]; topical micronised, capsaicin challenge 12 hours after pre-treatment) | inhibition of contralateral response (nasal secretion) ([2]; topical micronised, capsaicin challenge 24 hours after pre-treatment) | inhibition of the hypertonic saline response (nasal secretion) [3] | IC50 ([4]; Cavia porcellus, Neuron, 1 μM capsaicin, voltage clamp −70 mV, room temperature, Hill equation fit, n>4, read-out: IC50, inhibition of capsaicin response (inward current)) | inhibition of the capsaicin response (current), concentration dependence ([4]; voltage clamp −70 mV) | reversibility of inhibition on switching from capsaicin and Compound 1 to capsaicin only ([4]; voltage clamp −70 mV) | cells tested producing an inward current ([4]; 1 μM capsaicin, small diameter (<30 μm) fluorescent neurons, voltage clamped at −70 mV)
O=C(Nc1ccccc1Br)N[C@@H]1CCN(c2ccc(C(F)(F)F)cn2)C1 [Compound 1, N-(2-bromophenyl)-N′-[((R)-1-(5-trifluoromethyl-2-pyridyl)pyrrolidin-3-yl)]urea] | 56% | 83% | ca. 50% | ca. 70% | > 50% | ca. 75% | significant inhibition | 62% | 52% | 68% | 59 nM | concentration related inhibition | rapid reversal | –
COc1cc(CNC(=O)CCCC/C=C/C(C)C)ccc1O [capsaicin, reference compound] | – | – | – | – | – | – | – | – | – | – | – | – | – | 56%

Source: patent publication US20110200646A1, “The TRPVL Antagonists SB-795498 For Treating Rhinitis” (priority 2008, published 2011)
